Reference: patent US20190359653A1, “SELECTIVE PEPTIDE INHIBITORS OF FRIZZLED” (Genentech, Inc., priority 2016, published 2019)

Experiments:
[1] = system: mouse intestinal organoids; assay: RT-PCR of stem cell and Wnt transcripts in organoids; format: cell-based; conditions: for ISC markers Lgr5 and Ascl2: FIGS. 19A, 19B
Method: Mouse organoids were established from isolated crypts collected from the entire length of the small intestine and maintained as previously described (Sato et al. (2009) Nature 459, 262-265 (2009). All mouse derived tissue was performed according to the animal use guidelines of Genentech, a Member of the Roche Group, and the Institutional Animal Care and Use Committee, conforming to California State legal and ethical practices. Mouse sex was not selected for. Organoids were passaged at least twice per week and grown using IntestiCult Organoid growth media (cat. no. 06005; StemCell Technologies). Peptides were suspended in DMSO and dissolved in media to 1% DMSO final concentration, then added to organoids to initiate drug treatment. Antibodies were added to 10 μg/ml concentration. Organoids were imaged using a Nikon Eclipse Ti scope with a Nikon Plan Fluor 10×Ph1 DLL objective using an Andor Neo camera (1×1 binning; 200 ms exposure) and acquired using NIS Elements (v 4.50 64-bit; Nikon). APC^min organoids were generated as previously described (Melo, F.d.S.e. et al. A distinct role for Lgr5+ stem cells in primary and metastatic colon cancer. Nature 543, 676-680 (2017)). For organoids treated with CHIR99021 (5 μM; Stemcell Technologies) organoids were split and treated with DMSO or CHIR99021 (5 μM) for 24 hr. prior to the addition of peptide or DMSO for 24 hr.
RNA from organoid samples was isolated using the RNeasy Micro kit (cat. no. 74004; Qiagen) according to the manufacturer's instructions. Mouse small intestine RNA was collected using the RNeasy Mini Kit (cat. no. 74104; Qiagen). qRT-PCR was performed in 10 μL reactions with 50 ng total RNA using One-step Real-time RT-PCR mastermix (cat. no. 4392938; Life Technologies) according to the manufacturer's instructions. Taqman probes from Life Technologies were used: Actb (Mm01205647_g1); Lgr5 (Mm01251801_m1); Axin2 (Mm00443610_m1); Ascl2 (Mm01268891_g1); Olfm4 (Mm01320260_m1); Muc2 (Mm01276696_m1); ACTB(Hs99999903_m1); ACTB(Mm00607939_s1); GAPDH (Mm99999915_g1); and GAPDH(Hs03929097_g1). RT-PCR reactions were run using a 7900HT Fast Real-Time PCR system (ABI) at the following thermal cycling conditions: Holding step of 30 min at 48° C., followed by a holding step of 10 min at 95° C., and 40 cycles of 10 sec at 95° C. and 1 min at 60° C. Values were normalized to actin transcript levels and then normalized to control as described in the figure legend.
Treatment with Fz7-21S had no effect. […] The effects of dFz7-21 on both ISC potential and stem cell transcripts were similar to a control anti-Lrp6 antibody (i.e., a general inhibitor of Wnt signaling).

[2] = system: intestinal organoid samples; assay: RNA sequencing of intestinal organoids; format: cell-based, mouse; conditions: 6 and 24 h
Method: RNA-Seq libraries were prepared using TruSeq RNA Sample Preparation kit (Illumina, CA). The libraries were sequenced on Illumina HiSeq 2500 sequencers to obtain on average 34 million single-end reads (50 bp) per sample. RNAseq reads were first aligned to ribosomal RNA sequences to remove ribosomal reads. The remaining reads were aligned to the mouse reference genome (NCBI Build 38) using GSNAP (version 2013-10-10) (Wu, T. D. & Nacu, S. Fast and SNP-tolerant detection of complex variants and splicing in short reads. Bioinformatics 26, 873-881 (2010)) allowing a maximum of two mismatches per 50 base sequence (parameters: ‘-M 2-n 10-B 2-i 1-N 1-w 200000-E 1-pairmax-rna=200000-clip-overlap’). Transcript annotation was based on the RefSeq database (NCBI Annotation Release 104). To quantify gene expression levels, the number of reads mapped to the exons of each RefSeq gene was calculated. Read counts were scaled by library size, quantile normalized and precision weights calculated using the “voom” R package (Law, C. W., Chen, Y., Shi, W. & Smyth, G. K. voom: precision weights unlock linear model analysis tools for RNA-seq read counts. Genome Biology 15, R29 (2014)). […] In addition, gene expression was obtained in form of normalized Reads Per Kilobase gene model per Million total reads (nRPKM) as described earlier (Srinivasan, K. et al. Untangling the brain's neuroinflammatory and neurodegenerative transcriptional responses. Nat Commun 7, 11295 (2016)). […]
We performed Quantitative Set Analysis for Gene Expression (QuSAGE) (Yaari, G., Bolen, C. R., Thakar, J. & Kleinstein, S. H. Quantitative set analysis for gene expression: a method to quantify gene set differential expression including gene-gene correlations. Nucleic Acids Research 41, e170-e170 (2013)) to identify relevant biological processes associated with Wnt inhibition. […]

Sequence | ISC markers Lgr5 and Ascl2 ([1]; 24 and 48 h treatment) | expression of markers of Lgr5+ ISCs and reserve ISCs [2] | Muc2 ([1]; 24 and 48 h treatment) | Axin2 ([1]; FIG. 19C) | enterocyte markers [2]
LPSDDLEFWSHVMY [Fz7-21S, negative control] | had no effect | Little or no change in gene expression |  |  | 
LPSDDLEFWCHVMY [dFz7-21] | significantly down regulated | substantial down-regulation | upregulated | significantly reduced | up-regulation
